Earlier results, collected in patent publication US9206425B2, “Methods for treating Niemann-Pick type C disease” (Trustees of Dartmouth College, priority 2011, dated 2015).
Read-outs that look alike come from different tables or passages of the source.

How the values were obtained:
[1] = tested on: NPC1^−/− mice
[2] = tested on: NPC mice and NPC cats
[3] = target: T1, ACAT1 (Homo sapiens, UniProt P35610); conditions: Cho et al. 2003
T1 sequence (P35610 1-550): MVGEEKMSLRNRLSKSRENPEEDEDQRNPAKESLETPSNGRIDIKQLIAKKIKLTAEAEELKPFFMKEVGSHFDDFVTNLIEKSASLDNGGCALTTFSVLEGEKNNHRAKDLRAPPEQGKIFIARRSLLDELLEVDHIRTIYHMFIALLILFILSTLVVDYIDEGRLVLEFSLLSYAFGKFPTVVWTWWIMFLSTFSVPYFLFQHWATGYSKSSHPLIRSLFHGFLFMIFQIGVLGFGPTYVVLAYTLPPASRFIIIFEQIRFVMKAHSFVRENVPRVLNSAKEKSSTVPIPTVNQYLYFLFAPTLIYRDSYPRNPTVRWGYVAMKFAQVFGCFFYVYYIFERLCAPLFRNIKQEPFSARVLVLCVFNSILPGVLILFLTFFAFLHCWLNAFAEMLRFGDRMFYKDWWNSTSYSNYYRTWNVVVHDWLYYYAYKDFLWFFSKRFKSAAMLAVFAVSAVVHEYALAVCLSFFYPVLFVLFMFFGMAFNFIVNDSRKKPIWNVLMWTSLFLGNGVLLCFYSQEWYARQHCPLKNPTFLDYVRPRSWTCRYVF

[4] = tested on: coronary atherosclerosis / familial hypercholesterolemia
[5] = tested on: ACAT1 and ACAT2; conditions: Kitayama et al. 2006
[6] = target: T2, hACAT-2 (Homo sapiens, UniProt O75908)
T2 sequence (O75908 1-522): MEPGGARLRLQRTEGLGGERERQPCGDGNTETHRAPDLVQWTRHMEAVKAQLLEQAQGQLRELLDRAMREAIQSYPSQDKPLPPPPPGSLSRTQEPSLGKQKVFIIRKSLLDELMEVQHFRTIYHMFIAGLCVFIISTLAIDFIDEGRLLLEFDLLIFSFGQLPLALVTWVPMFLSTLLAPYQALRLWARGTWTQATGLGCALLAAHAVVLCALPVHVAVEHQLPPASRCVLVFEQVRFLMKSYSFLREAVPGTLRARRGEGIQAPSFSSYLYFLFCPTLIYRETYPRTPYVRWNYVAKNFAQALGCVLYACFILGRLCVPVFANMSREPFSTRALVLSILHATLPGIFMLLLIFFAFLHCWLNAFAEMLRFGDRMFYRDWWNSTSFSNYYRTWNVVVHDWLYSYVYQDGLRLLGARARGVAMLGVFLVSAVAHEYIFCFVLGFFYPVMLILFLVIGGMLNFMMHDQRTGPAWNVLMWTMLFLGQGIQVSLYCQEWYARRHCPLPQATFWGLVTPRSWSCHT

[7] = tested on: NPC disease; conditions: humans, two-year study
[8] = target: T1, ACAT1; conditions: Lee et al. 2004
[9] = tested on: mouse model for Alzheimer disease
[10] = tested on: human macrophages; conditions: in vitro
[11] = continuous administration starting at PND 7
[12] = mouse model for Alzheimer disease

In the case of `CC(O)COC[C@H]1O[C@@H]2O[C@H]3[C@H](O)[C@@H](O)[C@@H](O[C@H]4[C@H](O)[C@@H](O)[C@@H](O[C@H]5[C@H](O)[C@@H](O)[C@@H](O[C@H]6[C@H](O)[C@@H](O)[C@@H](O[C@H]7[C@H](O)[C@@H](O)[C@@H](O[C@H]8[C@H](O)[C@@H](O)[C@@H](O[C@H]1[C@H](O)[C@H]2O)O[C@@H]8COCC(C)O)O[C@@H]7COCC(C)O)O[C@@H]6COCC(C)O)O[C@@H]5COCC(C)O)O[C@@H]4COCC(C)O)O[C@@H]3COCC(C)O` (stereo partly drawn) [HPCD, hydroxypropyl beta-cyclodextrin], the prolonged lifespan ([1]; single injection at PND 7) is listed as 27%, the cholesterol accumulation ([1]; weekly treatment) is listed as “normalize cholesterol accumulation” and the survival ([1]; weekly treatment) is listed as “prolong survival”. For the same compound, the “crossing the blood brain barrier” value ([2]; mouse, in vivo) was “difficulty in crossing the blood brain barrier” and the “macrophage activation in the lungs” value ([2]; treated NPC mice and NPC cats) was “increases in macrophage activation”.
For `CCOC(=O)OC(=O)OCC` [diethyl pyrocarbonate], the “greater activity on ACAT1 compared to ACAT-2” value [3] is given as 4 fold.
In the case of `CCCCCCCCN1CCc2c(C)c(CC(=O)O)c(C)c(NC(=O)C(C)(C)C)c21` [Pactimibe], the “efficacy as supplement to statin treatment” value ([4]; patients with familial hypercholesterolemia) is given as “lacked efficacy” and the “potency on ACAT1 versus ACAT2” value [5] is given as “approximately equal potency”.
For `COc1ccc([C@@H](O)[C@@H](C)Oc2ccc([C@H]3O[C@H](c4ccc(O[C@H](C)[C@H](O)c5ccc6c(c5)OCO6)c(OC)c4)[C@H](C)[C@H]3C)cc2OC)cc1OC` [manassantin B], the “inhibition of hACAT-2” value ([6]; at 1 mM) is listed as 32%.
In the case of `CCCCN1C[C@H](O)[C@@H](O)[C@H](O)[C@H]1CO` [Miglustat], the clinical onset [1, 11] is listed as “significantly delayed”, the prolonged lifespan [1, 11] is listed as 49% and the “patients with stabilized NPC disease progression” value [7] is listed as 80 % of patients.
For saucerneol B, the IC50 [8] is listed as 43 µM and the IC50 ([6]; Lee et al. 2004) is listed as 124 µM.
For `CSc1cc(C)nc(SC)c1NC(=O)CN1CCN(CCSc2nc3ccccc3[nH]2)CC1` [K-604], the safety in vivo (laboratory animals) is given as “safe for use in vivo”.
For `CC(C)c1cc(C(C)C)c(CC(=O)NS(=O)(=O)Oc2c(C(C)C)cccc2C(C)C)c(C(C)C)c1` [Avasimibe], the “activity in mouse model for Alzheimer's disease” value ([9]; 14.4 mg/kg/day) is listed as “beneficial activity”, the amyloid plaque load [9, 12] is listed as “significant decreases” and the cognitive deficits [9, 12] is listed as “reduction in cognitive deficits”. The safety (administered to rats, dogs, and humans) was “safe”, the “progression of coronary atherosclerosis” value ([4]; humans, in combination with a statin drug) was “failed to demonstrate efficacy” and the “foam cell formation in macrophages” value [10] was “reduces foam cell formation”.
